≈ marks a conversion by molar mass, not a printed value. Where two headings read alike, the source gives them in different places.
Assays:
[1] = system: human papillomavirus (HPV)-positive cell lines; assay: Growth of human papillomavirus (HPV)-positive cell lines in presence of test compounds; type: cell-based
Procedure: See […] et at., Oncol Res. 10, 523-31 (1998) and J. A. Johnson et al., Antimicrob. Agents Chemother. 43, 1198-205 (1999). […] For these experiments, the cells were seeded in 96-well microtiter plates and after 24 hours of growth, serial dilutions of the test compounds were added. The cells were not fed after addition of the compounds. After three, five, seven and ten days, the cells were harvested by trypsinization and counted with a Coulter Counter. Duplicate wells were analyzed for each dilution and the results averaged.

[2] = system: primary human cervical keratinocytes (PHK); assay: Growth of control primary human cervical keratinocytes, Coulter Counter cell count; type: cell-based; details: for IC50: Homo sapiens, Keratinocyte
HeLa (HPV-18-positive) = assay: Growth of HPV-positive HeLa cells, Coulter Counter cell count; type: cell-based, human; details: for IC50: Homo sapiens
EiL8 (HPV-16-positive) = assay: Growth of HPV-positive EiL8 cells, Coulter Counter cell count; type: cell-based, human; details: for IC50: Homo sapiens, read-out: IC50 (concentration required to reduce cell growth by 50%)
Procedure: (§1) The cells used in the first study included CK-1 (HPV-33-positive), EiL8 (HPV-16-positive), SiHa (HPV-16-positive) and HeLa (HPV-18-positive) and control primary human cervical keratinocytes (PHK). The cells were cultured in growth medium at 37° C., in 5% CO2. For these experiments, the cells were seeded in 96-well microtiter plates and after 24 hours of growth, serial dilutions of the test compounds were added. The cells were not fed after addition of the compounds. After three, five, seven and ten days, the cells were harvested by trypsinization and counted with a Coulter Counter. Duplicate wells were analyzed for each dilution and the results averaged. The number of cells recovered at each dilution was compared to the number of cells in untreated control wells and the concentration of test compound required to reduce cell growth by 50 percent (IC50) was determined.

CK-1 (HPV-33-positive) = assay: cells; type: cell-based; details: for IC50: Homo sapiens, read-out: IC50 (concentration required to reduce cell growth by 50%)
SiHa (HPV-16-positive) = assay: Growth of HPV-positive SiHa cells, Coulter Counter cell count; type: cell-based, human; details: for IC50: Homo sapiens
[3] = system: human papillomavirus (HPV)-positive cell lines; details: literature (Andrei 1998; Johnson 1999); cited from earlier work
[4] = system: human foreskin fibroblast (HFF) cells; assay: Growth of human foreskin fibroblasts, neutral red uptake and counting of cells; type: cell-based
Procedure: as §1
(§2) The human foreskin fibroblast (HFF) cells were cultured in growth medium as described above, but assayed by neutral red uptake and counting of cells. The human embryonic lung fibroblast (HEL) cells were cultured in growth medium and assayed as described above by counting with a Coulter Counter. Daudi cells, an Epstein-Barr Virus (EBV)-positive Burkitt's lymphoma tumor cell line, were cultured in growth medium as described above and assayed by the neutral red uptake assay. […]

[5] = system: Daudi cells, an Epstein-Barr Virus (EBV)-positive Burkitt's lymphoma tumor cell line; assay: Growth of Daudi cells, neutral red uptake assay; type: cell-based, human
Procedure: as §1, §2

[6] = 72 h, Day 3, read-out: IC50 (concentration required to reduce cell growth by 50%)
[7] = 120 h, Day 5, read-out: IC50 (concentration required to reduce cell growth by 50%)
[8] = 168 h, Day 7, read-out: IC50 (concentration required to reduce cell growth by 50%)
[9] = 240 h, Day 10, read-out: IC50 (concentration required to reduce cell growth by 50%)

Nc1nc2c(ncn2COCCO)c(=O)[nH]1 [acyclovir, reference compound]
growth inhibition / anti-proliferative activity (in words) [1]: With the exception of acyclovir, growth inhibition was observed

Nc1ccn(C[C@@H](CO)OCP(=O)(O)O)c(=O)n1 [HPMPC, 3-hydroxy-2-phosphonylmethoxy-propyl cytosine, reference compound]
IC50 [2, 6]: 9.9 µg/mL (≈ 35.5 µM)
IC50 [2, 7]: 7 µg/mL (≈ 25.1 µM)
IC50 [2, 8]: 6.4 µg/mL (≈ 22.9 µM)
IC50 [2, 9]: 3.7 µg/mL (≈ 13.3 µM)
IC50 (HeLa (HPV-18-positive); [6]): 37 µg/mL (≈ 133 µM)
IC50 (HeLa (HPV-18-positive); [7]): 5.6 µg/mL (≈ 20.1 µM)
IC50 (HeLa (HPV-18-positive); [8]): 3.9 µg/mL (≈ 14 µM)
IC50 (HeLa (HPV-18-positive); [9]): 4.7 µg/mL (≈ 16.8 µM)
IC50 (EiL8 (HPV-16-positive); 72 h, EiL8, Day 3): 39 µg/mL (≈ 140 µM)
IC50 (EiL8 (HPV-16-positive); 120 h, EiL8, Day 5): 7.9 µg/mL (≈ 28.3 µM)
IC50 (EiL8 (HPV-16-positive); 168 h, EiL8, Day 7): 4.2 µg/mL (≈ 15 µM)
IC50 (EiL8 (HPV-16-positive); 240 h, EiL8, Day 10): 3.5 µg/mL (≈ 12.5 µM)
IC50 (CK-1 (HPV-33-positive); CK1, 72 h, CK-1, Day 3): 32 µg/mL (≈ 115 µM)
IC50 (CK-1 (HPV-33-positive); CK1, 120 h, CK-1, Day 5): 1.1 µg/mL (≈ 3.94 µM)
IC50 (CK-1 (HPV-33-positive); CK1, 168 h, CK-1, Day 7): 0.5 µg/mL (≈ 1.79 µM)
IC50 (CK-1 (HPV-33-positive); CK1, 240 h, CK-1, Day 10): 1.2 µg/mL (≈ 4.3 µM)
IC50 (SiHa (HPV-16-positive); [6]): 179 µg/mL (≈ 641 µM)
IC50 (SiHa (HPV-16-positive); [7]): 8.6 µg/mL (≈ 30.8 µM)
IC50 (SiHa (HPV-16-positive); [8]): 4.7 µg/mL (≈ 16.8 µM)
IC50 (SiHa (HPV-16-positive); [9]): 4 µg/mL (≈ 14.3 µM)
inhibition of proliferation of HPV-transformed cells (in words) [3]: inhibit the proliferation

2′,3′-cyclophosphateadenylyl(2′,5′)adenylyl-(2′,5′)adenosine [Cmpd. I]
IC50 (concentration required to reduce cell growth by 50%) ([2]; Day 3): 110 µg/mL
IC50 (concentration required to reduce cell growth by 50%) ([2]; Day 5): 168 µg/mL
IC50 (concentration required to reduce cell growth by 50%) ([2]; Day 7): 262 µg/mL
IC50 (concentration required to reduce cell growth by 50%) ([2]; Day 10): 280 µg/mL
IC50 (concentration required to reduce cell growth by 50%) (HeLa (HPV-18-positive); Day 3): 66 µg/mL
IC50 (concentration required to reduce cell growth by 50%) (HeLa (HPV-18-positive); Day 5): 62 µg/mL
IC50 (concentration required to reduce cell growth by 50%) (HeLa (HPV-18-positive); Day 7): 90 µg/mL
IC50 (concentration required to reduce cell growth by 50%) (HeLa (HPV-18-positive); Day 10): 160 µg/mL
IC50 (concentration required to reduce cell growth by 50%) (EiL8 (HPV-16-positive); EiL8, Day 3): 63 µg/mL
IC50 (concentration required to reduce cell growth by 50%) (EiL8 (HPV-16-positive); EiL8, Day 5): 68 µg/mL
IC50 (concentration required to reduce cell growth by 50%) (EiL8 (HPV-16-positive); EiL8, Day 7): 103 µg/mL
IC50 (concentration required to reduce cell growth by 50%) (EiL8 (HPV-16-positive); EiL8, Day 10): 180 µg/mL
IC50 (concentration required to reduce cell growth by 50%) (CK-1 (HPV-33-positive); CK-1, Day 3): 100 µg/mL
IC50 (concentration required to reduce cell growth by 50%) (CK-1 (HPV-33-positive); CK-1, Day 5): 46 µg/mL
IC50 (concentration required to reduce cell growth by 50%) (CK-1 (HPV-33-positive); CK-1, Day 7): 104 µg/mL
IC50 (concentration required to reduce cell growth by 50%) (CK-1 (HPV-33-positive); CK-1, Day 10): 303 µg/mL
IC50 (concentration required to reduce cell growth by 50%) (SiHa (HPV-16-positive); Day 3): 150 µg/mL
IC50 (concentration required to reduce cell growth by 50%) (SiHa (HPV-16-positive); Day 5): 108 µg/mL
IC50 (concentration required to reduce cell growth by 50%) (SiHa (HPV-16-positive); Day 7): 141 µg/mL
IC50 (concentration required to reduce cell growth by 50%) (SiHa (HPV-16-positive); Day 10): 193 µg/mL
inhibition of growth (in words) [4]: inhibit the growth
inhibition of growth (in words) [5]: inhibit the growth
growth inhibition / anti-proliferative activity (in words) [1]: anti-proliferative activity

From US20020123480A1, “Methods and compositions utilizing 2'-5' oligoadenylates in the treatment of disorders of cell proliferation” (priority 2000, published 2002)
